Laboratory results as given in the supplement of paper PMC10627819.

Assays:
S. pneumoniae D39V = test: Bliss interaction score (quartile over a dose matrix) (fitness difference); higher = more antagonism (negative = synergy)
In short: (§1)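 The Bliss score was calculated by subtracting the expected fitness, the product of single-drug values, from the observed fitness. OD595 at entry into stationary phase, over the plate's robust no-drug mean and capped at 1, served as the fitness readout. Single-drug values were inferred from combination data, and scores are summarised by quartiles across technical, biological and donor/recipient replicates.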

S. aureus DSM 20231 [1] = test: as above
In short: as §1

S. aureus Newman [2] = test: as above
In short: as §1

S. aureus DSM 20231 [3] = test: fitness (endpoint OD595 vs no drug) (fraction); higher = more growth
In short: (§2)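 Fitness was defined as the optical density at the transition into stationary phase relative to the robust mean of no-drug control wells. Values were capped at 1. Cultures were started at OD595 0.01 in 384-well plates (30 µl, or 55 µl for S. pneumoniae) in TSB, LB Lennox or CY at 37 °C. OD595 was recorded every 30 min over 14 h, with the first reading subtracted as background.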

S. aureus Newman [4] = test: as above
In short: as §2

B. subtilis 168 = test: Bliss interaction score (quartile over a dose matrix) (fitness difference); higher = more antagonism (negative = synergy)
In short: as §1

[5] = first compound 0.75 µg/mL, partner 0.625 µg/mL
[6] = first compound 0.75 µg/mL, partner 1.25 µg/mL
[7] = first compound 0.75 µg/mL, partner 2.5 µg/mL
[8] = first compound 1.5 µg/mL, partner 0.625 µg/mL
[9] = first compound 1.5 µg/mL, partner 1.25 µg/mL
[10] = first compound 1.5 µg/mL, partner 2.5 µg/mL
[11] = first compound 3 µg/mL, partner 0.625 µg/mL
[12] = first compound 3 µg/mL, partner 1.25 µg/mL
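Throughout, for Bliss interaction score (quartile over a dose matrix): first quartile when negative (synergy) and third quartile when positive (antagonism).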

Compound	Bliss interaction score (S. pneumoniae D39V)	Bliss interaction score (S. aureus DSM 20231 [1])	Bliss interaction score (S. aureus Newman [2])	fitness (S. aureus DSM 20231 [3]; [5])	fitness (S. aureus DSM 20231 [3]; [6])	fitness (S. aureus DSM 20231 [3]; [7])	fitness (S. aureus DSM 20231 [3]; [8])	fitness (S. aureus DSM 20231 [3]; [9])	fitness (S. aureus DSM 20231 [3]; [10])	fitness (S. aureus DSM 20231 [3]; [11])	fitness (S. aureus DSM 20231 [3]; [12])	fitness (S. aureus Newman [4]; [5])	fitness (S. aureus Newman [4]; [6])	fitness (S. aureus Newman [4]; [7])	fitness (S. aureus Newman [4]; [8])	fitness (S. aureus Newman [4]; [9])	fitness (S. aureus Newman [4]; [10])	fitness (S. aureus Newman [4]; [11])	fitness (S. aureus Newman [4]; [12])	Bliss interaction score (B. subtilis 168)	fitness (S. aureus Newman [4]; first compound 0.75 µg/mL, partner 0.781 µg/mL)	fitness (S. aureus Newman [4]; first compound 0.75 µg/mL, partner 1.562 µg/mL)	fitness (S. aureus Newman [4]; first compound 0.75 µg/mL, partner 3.124 µg/mL)	fitness (S. aureus Newman [4]; first compound 1.5 µg/mL, partner 0.781 µg/mL)	fitness (S. aureus Newman [4]; first compound 1.5 µg/mL, partner 1.562 µg/mL)	fitness (S. aureus Newman [4]; first compound 1.5 µg/mL, partner 3.124 µg/mL)	fitness (S. aureus Newman [4]; first compound 3 µg/mL, partner 1.562 µg/mL)	fitness (S. aureus Newman [4]; first compound 3 µg/mL, partner 3.124 µg/mL)
O=C(N[C@H](CO)[C@H](O)c1ccc([N+](=O)[O-])cc1)C(Cl)Cl [Chloramphenicol] + O=C1CN(/N=C/c2ccc([N+](=O)[O-])o2)C(=O)N1 [Nitrofurantoin]	-0.157	-0.0404	-0.0842																									
O=C(N[C@H](CO)[C@H](O)c1ccc([N+](=O)[O-])cc1)C(Cl)Cl [Chloramphenicol] + COc1cccc2c1C(=O)c1c(O)c3c(c(O)c1C2=O)C[C@@](O)(C(=O)CO)C[C@@H]3O[C@H]1C[C@H](N)[C@H](O)[C@H](C)O1 [Doxorubicin]	-0.127		0.132	0.646	0.698	0.663	0.572	0.569	0.525	0.118	0.121	0.676	0.72	0.685	0.564	0.562	0.579	0.326	0.291	-0.0604								
O=C(N[C@H](CO)[C@H](O)c1ccc([N+](=O)[O-])cc1)C(Cl)Cl [Chloramphenicol] + CO[C@H]1/C=C/O[C@@]2(C)Oc3c(C)c(O)c4c(O)c(c(/C=N/N5CCN(C)CC5)c(O)c4c3C2=O)NC(=O)/C(C)=C\C=C\[C@H](C)[C@H](O)[C@@H](C)[C@@H](O)[C@@H](C)[C@H](OC(C)=O)[C@@H]1C [Rifampicin]	0.069	0.0582	0.0185																									
O=C(N[C@H](CO)[C@H](O)c1ccc([N+](=O)[O-])cc1)C(Cl)Cl [Chloramphenicol] + Cc1ncc([N+](=O)[O-])n1CCO [Metronidazole]	0.0867		-0.07	0.775	0.736	0.755						0.796	0.819	0.853	0.555	0.573	0.564	0.159	0.167	0.0423	0.789	0.768	0.752	0.539	0.527	0.521	0.172	0.231
